# Earlier results, collected in patent publication US12569183B2 (University Of Maryland, Baltimore, priority 2018, dated 2026).
# Assays:
# [1] = administered twice daily, steady state on day 3
# [2] = clinical trials; median baseline QTc 405 msec
# [3] = rapid IV infusions; hypotension, dyspnea, QT prolongation
compound,measurement,setting,value
CC(C)NCC(O)c1ccc(NS(C)(=O)=O)cc1 (stereo not drawn) [sotalol],number of doses until steady-state exposures,[1],4-5 doses
same,slope of the concentration QTc relationship,[2],0.0158 ms/ng/mL
same,adverse events,[3],only mild to moderate adverse events
